Biological target: T1, human GPR119 (Homo sapiens, UniProt Q8TDV5)
T1 construct: expressed in transfected cells
T1 sequence (Q8TDV5 1-335): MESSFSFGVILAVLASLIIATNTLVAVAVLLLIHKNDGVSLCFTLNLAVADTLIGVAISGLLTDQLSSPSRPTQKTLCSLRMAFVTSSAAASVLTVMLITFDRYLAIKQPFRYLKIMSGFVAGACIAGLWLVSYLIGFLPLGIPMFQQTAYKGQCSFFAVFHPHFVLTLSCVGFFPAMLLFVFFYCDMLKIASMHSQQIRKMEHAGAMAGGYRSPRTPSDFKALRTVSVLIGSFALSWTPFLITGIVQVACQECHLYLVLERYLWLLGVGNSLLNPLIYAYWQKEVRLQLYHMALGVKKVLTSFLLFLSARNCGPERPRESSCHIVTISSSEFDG
Test: Functional cellular assay measuring GPR119-mediated cAMP release (HTRF)
Assay type: cell-based
Details: HEK-293 cell line stably expressing recombinant human GPR119; cAMP response, 30 minutes at room temperature
Method: Functional Cellular Assays Measuring GPR119-Mediated cAMP Release
Compounds of the invention, which are agonists of GPR119, were characterized by functional assays measuring the cAMP response of HEK-293 cell lines stably expressing recombinant GPR119 from man, mouse or rat, or by using a hamster cell line HIT-T15 expressing GPR119 endogenously. The cAMP content was determined using a kit based on homogenous time-resolved fluorescence (HTRF) from Cisbio Corp. (cat. no. 62AM4PEC). For preparation, cells were split into T175 culture flasks and grown to near confluency in medium (DMEM/10% FCS for HEK-293 cells, and F-12K medium/10% horse serum/2.5% FCS for HIT-T15 cells, respectively). Medium was then removed and cells washed with PBS lacking calcium and magnesium ions, followed by proteinase treatment with accutase (Sigma-Aldrich, cat. no. A6964). Detached cells were washed and resuspended in assay buffer (1×HBSS; 20 mM HEPES, 0.1% BSA, 2 mM IBMX) and cellular density determined. They were then diluted to 400000 cells/mL and 25 μL-aliquots dispensed to the wells of 96-well plates. For measurement, 25 μL of test compound in assay buffer was added and incubated for 30 minutes at room temperature. After addition of HTRF reagents diluted in lysis buffer, the plates were incubated for 1 hour, followed by measuring the fluorescence ratio at 665 vs. 620 nm. Potency of the agonists was quantified by determining the concentrations that caused 50% of the maximal response/activation (EC50). See Table 4 for exemplary data obtained using the cell line expressing human GPR119.

Row | EC50 [µM] | Compound
1 | 0.311 | O=C1CC(CCO)c2ccc(N3CC[C@@H](Oc4ccc(Oc5ccc(F)cc5)nc4)C3=O)cc21 (stereo partly drawn) [Example 1-01, (3R)-3-[[6-(4-Fluorophenoxy)-3-pyridyl]oxy]-1-[1-(2-hydroxyethyl)-3-oxo-indan-5-yl]pyrrolidin-2-one]
2 | 0.262 | COC(=O)CC1Cc2ccc(N3CCC(Oc4ccc(OCCC(C)C)cc4)C3=O)cc2C1=O (stereo not shown) [Example 1-02, methyl 2-[6-[3-(4-isopentyloxyphenoxy)-2-oxo-pyrrolidin-1-yl]-1-oxo-indan-2-yl]acetate]
3 | 0.111 | COC(=O)CC1CC(=O)c2cc(N3CC[C@@H](Oc4ccc(Oc5ccc(F)cc5)cc4)C3=O)ccc21 (stereo partly drawn) [Example 1-03, methyl 2-[5-[(3R)-3-[4-(4-fluorophenoxy)phenoxy]-2-oxo-pyrrolidin-1-yl]-3-oxo-indan-1-yl]acetate]
4 | 0.014 | COC(=O)CC1Cc2c(F)cc(N3CC[C@@H](Oc4ccc(OCC5CC5)nc4)C3=O)cc2C1=O (stereo partly drawn) [Example 1-04, {6-[(R)-3-(6-cyclopropylmethoxy-pyridin-3-yloxy)-2-oxo-pyrrolidin-1-yl]-4-fluoro-1-oxo-indan-2-yl}-acetic acid methyl ester]
5 | 0.233 | O=C1c2cc(N3CC[C@@H](Oc4ccc(OCC5CC5)nc4)C3=O)cc(F)c2CC1CCO (stereo partly drawn) [Example 1-05, (3R)-3-[[6-(cyclopropylmethoxy)-3-pyridyl]oxy]-1-[7-fluoro-2-(2-hydroxyethyl)-3-oxo-indan-5-yl]pyrrolidin-2-one]
6 | 0.019 | COC(=O)CC1CC(=O)c2cc(N3CC[C@@H](Oc4ccc(OCC5CC5)nc4)C3=O)ccc21 (stereo partly drawn) [Example 1-06, methyl 2-[5-[(3R)-3-[[6-(cyclopropylmethoxy)-3-pyridyl]oxy]-2-oxo-pyrrolidin-1-yl]-3-oxo-indan-1-yl]acetate]
7 | 0.332 | COC(=O)CC1(CC(=O)O)Cc2c(F)cc(N3CC[C@@H](Oc4ccc(OCC5CC5)nc4)C3=O)cc2C1=O (stereo partly drawn) [Example 1-07, 2-[6-[(3R)-3-[[6-(cyclopropylmethoxy)-3-pyridyl]oxy]-2-oxo-pyrrolidin-1-yl]-4-fluoro-2-(2-methoxy-2-oxo-ethyl)-1-oxo-indan-2-yl]acetic acid]
8 | 0.079 | O=C1CC(CCO)c2ccc(N3CC[C@@H](Oc4ccc(OCC5CC5)nc4)C3=O)cc21 (stereo partly drawn) [Example 1-08, (3R)-3-[[6-(cyclopropylmethoxy)-3-pyridyl]oxy]-1-[1-(2-hydroxyethyl)-3-oxo-indan-5-yl]pyrrolidin-2-one]
9 | 0.012 | COC(=O)CC1CC(=O)c2cc(N3CC[C@@H](Oc4ccc(OCC5CC5)nc4)C3=O)cc(F)c21 (stereo partly drawn) [Example 1-09, methyl 2-[5-[(3R)-3-[[6-(cyclopropylmethoxy)-3-pyridyl]oxy]-2-oxo-pyrrolidin-1-yl]-7-fluoro-3-oxo-indan-1-yl]acetate]
10 | 0.041 | COC(=O)C1Cc2ccc(N3CC[C@@H](Oc4ccc(OCC5CC5)nc4)C3=O)cc2C1=O (stereo partly drawn) [Example 1-10, methyl 6-[(3R)-3-[[6-(cyclopropylmethoxy)-3-pyridyl]oxy]-2-oxo-pyrrolidin-1-yl]-1-oxo-indane-2-carboxylate]
11 | 0.038 | COC(=O)CC1CC(=O)c2cc(N3CC[C@@H](Oc4ccc(OC5CC5)nc4)C3=O)cc(F)c21 (stereo partly drawn) [Example 1-11, methyl 2-[5-[(3R)-3-[[6-(cyclopropoxy)-3-pyridyl]oxy]-2-oxo-pyrrolidin-1-yl]-7-fluoro-3-oxo-indan-1-yl]acetate]
12 | 0.029 | COC(=O)CC1Cc2ccc(N3CC[C@@H](Oc4ccc(OCC5CC5)nc4)C3=O)cc2C1=O (stereo partly drawn) [Example 1-12, methyl 2-[6-[(3R)-3-[[6-(cyclopropylmethoxy)-3-pyridyl]oxy]-2-oxo-pyrrolidin-1-yl]-1-oxo-indan-2-yl]acetate]
13 | 0.098 | COC(=O)CC1CC(=O)c2cc(N3CC[C@@H](Oc4ccc(OC5CC5)nc4)C3=O)ccc21 (stereo partly drawn) [Example 1-13, methyl 2-[5-[(3R)-3-[[6-(cyclopropoxy)-3-pyridyl]oxy]-2-oxo-pyrrolidin-1-yl]-3-oxo-indan-1-yl]acetate]
14 | 0.019 | COC(=O)C[C@@H]1CC(=O)c2cc(N3CC[C@@H](Oc4ccc(OCC5CC5)nc4)C3=O)ccc21 [Example 1-14, methyl 2-[(1S)-5-[(3R)-3-[[6-(cyclopropylmethoxy)-3-pyridyl]oxy]-2-oxo-pyrrolidin-1-yl]-3-oxo-indan-1-yl]acetate]
15 | 0.016 | COC(=O)C[C@H]1CC(=O)c2cc(N3CC[C@@H](Oc4ccc(OCC5CC5)nc4)C3=O)ccc21 [Example 1-15, methyl 2-[(1R)-5-[(3R)-3-[[6-(cyclopropylmethoxy)-3-pyridyl]oxy]-2-oxo-pyrrolidin-1-yl]-3-oxo-indan-1-yl]acetate]
16 | 0.117 | CN(C)C(=O)C1CC(=O)c2cc(N3CC[C@@H](Oc4ccc(OCC5CC5)nc4)C3=O)cc(F)c21 (stereo partly drawn) [Example 1-16, 5-[(3R)-3-[[6-(cyclopropylmethoxy)-3-pyridyl]oxy]-2-oxo-pyrrolidin-1-yl]-7-fluoro-N,N-dimethyl-3-oxo-indane-1-carboxamide]
17 | 0.072 | O=C1CC(CO)c2c(F)cc(N3CC[C@@H](Oc4ccc(OCC5CC5)nc4)C3=O)cc21 (stereo partly drawn) [Example 1-17, (3R)-3-[[6-(cyclopropylmethoxy)-3-pyridyl]oxy]-1-[7-fluoro-1-(hydroxymethyl)-3-oxo-indan-5-yl]pyrrolidin-2-one]
18 | 0.198 | O=C1CC(CO)c2ccc(N3CC[C@@H](Oc4ccc(OCC5CC5)nc4)C3=O)cc21 (stereo partly drawn) [Example 1-18, (3R)-3-[[6-(cyclopropylmethoxy)-3-pyridyl]oxy]-1-[1-(hydroxymethyl)-3-oxo-indan-5-yl]pyrrolidin-2-one]
19 | 0.36 | O=C(O)CC1Cc2c(F)cc(N3CC[C@@H](Oc4ccc(OCC5CC5)nc4)C3=O)cc2C1=O (stereo partly drawn) [Example 2-01, {6-[(R)-3-(6-cyclopropylmethoxy-pyridin-3-yloxy)-2-oxo-pyrrolidin-1-yl]-4-fluoro-1-oxo-indan-2-yl}-acetic acid]
20 | 0.135 | O=C(O)CC1CC(=O)c2cc(N3CC[C@@H](Oc4ccc(OCC5CC5)nc4)C3=O)ccc21 (stereo partly drawn) [Example 2-02, {5-[(R)-3-(6-Cyclopropylmethoxy-pyridin-3-yloxy)-2-oxo-pyrrolidin-1-yl]-3-oxo-indan-1-yl}-acetic acid]
21 | 0.218 | O=C(O)CC1CC(=O)c2cc(N3CC[C@@H](Oc4ccc(OCC5CC5)nc4)C3=O)cc(F)c21 (stereo partly drawn) [Example 2-03, 2-[5-[(3R)-3-[[6-(cyclopropylmethoxy)-3-pyridyl]oxy]-2-oxo-pyrrolidin-1-yl]-7-fluoro-3-oxo-indan-1-yl]acetic acid]
22 | 0.505 | O=C(O)C[C@H]1CC(=O)c2cc(N3CC[C@@H](Oc4ccc(OCC5CC5)nc4)C3=O)ccc21 [Example 2-04, 2-[5-[(3R)-3-[[6-(cyclopropylmethoxy)-3-pyridyl]oxy]-2-oxo-pyrrolidin-1-yl]-3-oxo-indan-1-yl]acetic acid]
23 | 1.99 | O=C(O)C[C@@H]1CC(=O)c2cc(N3CC[C@@H](Oc4ccc(OCC5CC5)nc4)C3=O)ccc21 [Example 2-05, 2-[(1S)-5-[(3R)-3-[[6-(cyclopropylmethoxy)-3-pyridyl]oxy]-2-oxo-pyrrolidin-1-yl]-3-oxo-indan-1-yl]acetic acid]
24 | 0.082 | CN(C)C(=O)CC1CC(=O)c2cc(N3CC[C@@H](Oc4ccc(OCC5CC5)nc4)C3=O)ccc21 (stereo partly drawn) [Example 3-01, 2-[5-[(3R)-3-[[6-(cyclopropylmethoxy)-3-pyridyl]oxy]-2-oxo-pyrrolidin-1-yl]-3-oxo-indan-1-yl]-N,N-dimethyl-acetamide]
25 | 0.188 | CNC(=O)CC1CC(=O)c2cc(N3CC[C@@H](Oc4ccc(OCC5CC5)nc4)C3=O)ccc21 (stereo partly drawn) [Example 3-02, 2-[5-[(3R)-3-[[6-(cyclopropylmethoxy)-3-pyridyl]oxy]-2-oxo-pyrrolidin-1-yl]-3-oxo-indan-1-yl]-N-methyl-acetamide]
26 | 0.339 | O=C(CC1CC(=O)c2cc(N3CC[C@@H](Oc4ccc(OCC5CC5)nc4)C3=O)ccc21)NC1CC1 (stereo partly drawn) [Example 3-03, N-cyclopropyl-2-[5-[(3R)-3-[[6-(cyclopropylmethoxy)-3-pyridyl]oxy]-2-oxo-pyrrolidin-1-yl]-3-oxo-indan-1-yl]acetamide]
27 | 0.32 | NC(=O)CC1CC(=O)c2cc(N3CC[C@@H](Oc4ccc(OCC5CC5)nc4)C3=O)ccc21 (stereo partly drawn) [Example 3-04, 2-[5-[(3R)-3-[[6-(cyclopropylmethoxy)-3-pyridyl]oxy]-2-oxo-pyrrolidin-1-yl]-3-oxo-indan-1-yl]acetamide]
28 | 0.078 | NC(=O)CC1Cc2c(F)cc(N3CC[C@@H](Oc4ccc(OCC5CC5)nc4)C3=O)cc2C1=O (stereo partly drawn) [Example 3-05, 2-[6-[(3R)-3-[[6-(cyclopropylmethoxy)-3-pyridyl]oxy]-2-oxo-pyrrolidin-1-yl]-4-fluoro-1-oxo-indan-2-yl]acetamide]
